According to ChEMBL document CHEMBL6109144, “Discovery of New Difluorocyclobutyl Derivatives as Effective Glucagon-Like Peptide-1 Receptor Agonists with Reduced hERG Inhibitory Activities” (J Med Chem, 2025):
Activity calls are given as the source filed them. No cut-off for these calls is given here.

Legend:
[1] = molecular target: T1, Glucagon-like peptide 1 receptor (Homo sapiens, UniProt P43220); test: Binding affinity to GLP-1R (unknown origin) at 500 nM measured at 30 to 120 mins by HTRF analysis relative to control; conditions: time 30-120 min
T1 sequence (P43220 whole entry): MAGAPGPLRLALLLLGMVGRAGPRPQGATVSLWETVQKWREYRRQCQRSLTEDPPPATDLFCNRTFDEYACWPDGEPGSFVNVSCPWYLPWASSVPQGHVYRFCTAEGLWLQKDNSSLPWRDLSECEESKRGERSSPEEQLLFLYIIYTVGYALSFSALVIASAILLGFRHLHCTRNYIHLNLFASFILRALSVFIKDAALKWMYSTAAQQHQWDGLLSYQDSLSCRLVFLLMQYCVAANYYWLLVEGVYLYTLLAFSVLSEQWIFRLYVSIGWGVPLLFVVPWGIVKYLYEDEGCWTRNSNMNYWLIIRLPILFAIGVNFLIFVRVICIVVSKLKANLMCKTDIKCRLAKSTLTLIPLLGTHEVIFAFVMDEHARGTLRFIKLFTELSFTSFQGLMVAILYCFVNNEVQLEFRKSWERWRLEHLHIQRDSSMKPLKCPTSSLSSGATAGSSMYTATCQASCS

[2] = molecular target: T1, Glucagon-like peptide 1 receptor; test: Agonist activity at N-terminal hemagglutinin-tagged human GLP-1R expressed in CHO cells co-transfected with pcDNA3.0 assessed as increase in intracellular cAMP accumulation incubated for 30 mins by microplate reader analysis; type: functional, cell-based
[3] = molecular target: T1, Glucagon-like peptide 1 receptor; test: Binding affinity to GLP-1R (unknown origin) at 5000 nM measured at 30 to 120 mins by HTRF analysis relative to control; conditions: filed as agonist, time 30-120 min
[4] = Cmax in Sprague-Dawley rat at 5 mg/kg, po measured up to 24 hrs by LC-MS/MS analysis; type: ADME, organism-based; conditions: in vivo
[5] = test system: Rattus norvegicus; test: Antidiabetic activity in human GLP-1R knockin Sprague-Dawley rat model assessed as increase in rate of insulin secretion at 10 mg/kg, po pretreated with compound for 15 mins by IPGTT analysis; type: functional, organism-based
[6] = molecular target: T2, hERG (KCNH2) (Homo sapiens, UniProt Q12809); test: Inhibition of hERG at 1 uM at -80 mV holding potential by whole-cell patch clamp analysis relative to control; type: toxicity
T2 sequence (Q12809 whole entry): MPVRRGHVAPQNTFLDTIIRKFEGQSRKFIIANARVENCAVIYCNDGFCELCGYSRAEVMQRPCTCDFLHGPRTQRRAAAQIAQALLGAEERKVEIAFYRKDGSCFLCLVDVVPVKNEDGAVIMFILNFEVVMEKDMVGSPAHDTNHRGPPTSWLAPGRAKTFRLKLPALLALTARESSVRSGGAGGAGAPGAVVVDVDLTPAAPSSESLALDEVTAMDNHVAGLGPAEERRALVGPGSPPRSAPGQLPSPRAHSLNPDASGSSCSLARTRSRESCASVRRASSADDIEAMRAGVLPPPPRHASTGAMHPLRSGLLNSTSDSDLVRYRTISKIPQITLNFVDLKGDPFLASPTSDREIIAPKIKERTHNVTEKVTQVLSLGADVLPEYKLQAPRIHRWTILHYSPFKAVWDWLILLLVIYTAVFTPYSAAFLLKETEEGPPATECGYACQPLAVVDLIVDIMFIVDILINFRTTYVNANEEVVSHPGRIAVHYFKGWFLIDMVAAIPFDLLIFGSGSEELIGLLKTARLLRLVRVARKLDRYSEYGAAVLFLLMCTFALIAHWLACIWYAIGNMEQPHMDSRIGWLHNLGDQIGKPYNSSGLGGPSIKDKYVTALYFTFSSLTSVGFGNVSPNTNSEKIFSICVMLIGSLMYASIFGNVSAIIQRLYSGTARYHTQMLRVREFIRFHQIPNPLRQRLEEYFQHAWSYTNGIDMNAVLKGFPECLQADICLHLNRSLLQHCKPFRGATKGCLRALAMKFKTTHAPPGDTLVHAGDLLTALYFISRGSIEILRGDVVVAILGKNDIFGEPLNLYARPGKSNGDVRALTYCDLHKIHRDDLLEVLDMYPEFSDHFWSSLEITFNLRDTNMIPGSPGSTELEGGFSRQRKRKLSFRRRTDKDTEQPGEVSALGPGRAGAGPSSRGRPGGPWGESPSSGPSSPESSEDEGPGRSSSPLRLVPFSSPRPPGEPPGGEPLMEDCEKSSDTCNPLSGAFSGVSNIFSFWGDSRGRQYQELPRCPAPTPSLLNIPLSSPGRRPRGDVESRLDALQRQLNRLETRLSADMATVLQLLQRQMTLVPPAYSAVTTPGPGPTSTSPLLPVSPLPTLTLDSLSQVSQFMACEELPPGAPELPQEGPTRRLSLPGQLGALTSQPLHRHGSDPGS

[7] = test system: Rattus norvegicus; test: Antidiabetic activity in human GLP-1R knockin Sprague-Dawley rat model assessed as increase in rate of glucose disappearance at 10 mg/kg, po pretreated with compound for 15 mins by IPGTT analysis; type: functional, organism-based
[8] = in vivo; conditions: Sprague-Dawley, rat, po, 5 mg/kg
[9] = Fraction of the dose absorbed in Sprague-Dawley rat at 5 mg/kg, po measured up to 24 hrs by LC-MS/MS analysis; type: ADME, organism-based; conditions: in vivo, read-out: Fabs
[10] = AUC (0 to infinity) in Sprague-Dawley rat at 5 mg/kg, po measured up to 24 hrs by LC-MS/MS analysis; type: ADME, organism-based; conditions: in vivo
[11] = Observed apparent oral clearance in Sprague-Dawley rat at 5 mg/kg, po measured up to 24 hrs by LC-MS/MS analysis; type: ADME, organism-based; conditions: in vivo
[12] = molecular target: T2, hERG (KCNH2); test: Inhibition of hERG at 10 uM at -80 mV holding potential by whole-cell patch clamp analysis relative to control; type: toxicity
[13] = Half life in Sprague-Dawley rat at 5 mg/kg, po measured up to 24 hrs by LC-MS/MS analysis; type: ADME, organism-based; conditions: in vivo
[14] = molecular target: Glucagon receptor (Homo sapiens, UniProt P47871); test: Agonist activity at N-terminal HA-tagged human GCGR expressed in CHO cells co-transfected with pcDNA3.0 assessed as effect on cAMP accumulation incubated for 30 mins by microplate reader analysis; type: functional, cell-based
Sequence of Glucagon receptor (P47871 whole entry): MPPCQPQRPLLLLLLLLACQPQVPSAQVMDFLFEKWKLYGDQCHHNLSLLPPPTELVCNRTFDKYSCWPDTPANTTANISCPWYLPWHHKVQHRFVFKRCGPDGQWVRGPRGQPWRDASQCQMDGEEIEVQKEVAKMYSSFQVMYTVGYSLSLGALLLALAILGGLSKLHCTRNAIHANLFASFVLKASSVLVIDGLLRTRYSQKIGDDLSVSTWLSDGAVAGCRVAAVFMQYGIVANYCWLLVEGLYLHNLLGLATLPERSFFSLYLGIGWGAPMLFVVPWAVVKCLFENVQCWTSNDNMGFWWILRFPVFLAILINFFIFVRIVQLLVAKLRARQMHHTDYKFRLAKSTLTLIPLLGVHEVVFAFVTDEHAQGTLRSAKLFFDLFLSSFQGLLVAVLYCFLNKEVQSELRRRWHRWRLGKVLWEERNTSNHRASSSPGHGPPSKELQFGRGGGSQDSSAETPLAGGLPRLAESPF

[15] = molecular target: T1, Glucagon-like peptide 1 receptor; test: Agonist activity at human GLP-1R expressed in HEK293 cells assessed as beta-arrestin2 recruitment incubated for 5 mins by bioluminescence based Envision multiplate reader analysis; type: functional, cell-based
[16] = molecular target: T1, Glucagon-like peptide 1 receptor; test: Agonist activity at human GLP-1R expressed in HEK293 cells assessed as beta-arrestin1 recruitment incubated for 5 mins by bioluminescence based Envision multiplate reader analysis; type: functional, cell-based
[17] = Induction of insulin release in human EndoC-betaH5 cells incubated for 1 hr by ELISA analysis; type: functional, cell-based; conditions: EndoC-betaH5, 1 h
[18] = test system: Rattus norvegicus; test: Antidiabetic activity in human GLP-1R knockin po dosed Sprague-Dawley rat model assessed as increase in glucose-simulated insulin secretion pretreated with compound for 15 mins followed by D-glucose administration and measured after 30 mins by ELISA analysis; type: functional, organism-based; conditions: dose 1-10 mg/kg, time 45.0 min
[19] = test system: Rattus norvegicus; test: Antidiabetic activity in human GLP-1R knockin Sprague-Dawley rat model assessed as increase in rate of glucose disappearance at 1 to 10 mg/kg, po pretreated with compound for 15 mins by IPGTT analysis; type: functional, organism-based; conditions: dose 1-10 mg/kg
[20] = molecular target: T3, Glucagon-like peptide 2 receptor (Homo sapiens, UniProt O95838); test: Agonist activity at N-terminal HA-tagged human GLP-2R expressed in CHO cells co-transfected with pcDNA3.0 assessed as effect on cAMP accumulation incubated for 30 mins by microplate reader analysis; type: functional, cell-based
T3 sequence (O95838 whole entry): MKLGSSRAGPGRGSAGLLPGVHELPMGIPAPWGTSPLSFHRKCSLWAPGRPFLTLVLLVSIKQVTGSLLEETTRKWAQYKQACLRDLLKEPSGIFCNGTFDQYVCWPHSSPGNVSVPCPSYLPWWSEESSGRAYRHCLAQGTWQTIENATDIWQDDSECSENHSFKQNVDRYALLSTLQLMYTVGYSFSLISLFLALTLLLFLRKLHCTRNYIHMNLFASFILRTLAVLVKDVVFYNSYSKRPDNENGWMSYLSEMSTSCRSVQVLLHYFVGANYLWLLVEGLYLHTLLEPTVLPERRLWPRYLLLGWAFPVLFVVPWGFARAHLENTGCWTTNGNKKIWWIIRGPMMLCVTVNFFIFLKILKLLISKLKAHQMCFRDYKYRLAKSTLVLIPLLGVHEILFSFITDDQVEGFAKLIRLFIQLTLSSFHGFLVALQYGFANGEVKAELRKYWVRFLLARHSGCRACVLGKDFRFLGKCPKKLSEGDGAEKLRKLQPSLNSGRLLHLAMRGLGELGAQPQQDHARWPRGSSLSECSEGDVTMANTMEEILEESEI

[21] = test system: Rattus norvegicus; test: Antidiabetic activity in human GLP-1R knockin Sprague-Dawley rat model assessed as increase in rate of insulin secretion at 1 to 10 mg/kg, po pretreated with compound for 15 mins by IPGTT analysis; type: functional, organism-based; conditions: dose 1-10 mg/kg
[22] = molecular target: T4, Gastric inhibitory polypeptide receptor (Homo sapiens, UniProt P48546); test: Agonist activity at N-terminal HA-tagged human GIPR expressed in CHO cells co-transfected with pcDNA3.0 assessed as effect on cAMP accumulation incubated for 30 mins by microplate reader analysis; type: functional, cell-based
T4 sequence (P48546 whole entry): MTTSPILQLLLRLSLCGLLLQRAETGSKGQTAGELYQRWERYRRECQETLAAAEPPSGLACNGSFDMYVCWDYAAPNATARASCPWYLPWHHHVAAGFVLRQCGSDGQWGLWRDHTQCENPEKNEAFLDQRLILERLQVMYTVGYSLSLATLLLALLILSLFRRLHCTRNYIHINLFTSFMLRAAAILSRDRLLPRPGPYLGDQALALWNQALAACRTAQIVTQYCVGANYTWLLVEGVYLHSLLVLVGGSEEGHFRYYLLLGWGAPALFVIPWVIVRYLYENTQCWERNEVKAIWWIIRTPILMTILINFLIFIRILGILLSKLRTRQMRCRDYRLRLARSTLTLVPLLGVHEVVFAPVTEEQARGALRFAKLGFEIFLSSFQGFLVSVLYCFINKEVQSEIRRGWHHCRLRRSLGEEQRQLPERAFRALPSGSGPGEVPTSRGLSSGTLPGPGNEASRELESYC

| SMILES | EC50 [2] | Activity [3] | Activity ([1]; filed as agonist) | Cmax [4] | Tmax at 24 h [8] | Fa at 24 h [9] | AUC(0-inf) [10] | CL/F [11] | half-life [13] | inhibition at 1 µM [6] | inhibition at 10 µM [12] | other results |
| --- | --- | --- | --- | --- | --- | --- | --- | --- | --- | --- | --- | --- |
| O=C(O)c1ccc2nc(Cc3ccc(-c4cccc(OCc5ccc(C6CC(F)(F)C6)cc5F)n4)cc3)n(C[C@@H]3CCO3)c2c1 | 0.093 nM | 73.5% |  |  |  |  |  |  |  |  |  | Activity [1]: 29.5% |
| N#Cc1ccc(COc2cccc(C3CCN(Cc4nc5ccc(C(=O)O)cc5n4C[C@@H]4CCO4)CC3)n2)c(F)c1 [DANUGLIPRON] |  | 81.9% | 44.9% | 130 ng/mL | 1.33 h | 35.1% | 655 ng·h/mL | 135 mL/min/kg | 3.61 h | 8.4% | 69.7% | Activity [5]: Active; Activity [7]: Active |
| O=C(O)c1ccc2nc(CN3CCC(Oc4cccc(COc5ccc6cnn(CC(F)F)c6c5)n4)CC3)n(C[C@@H]3CCO3)c2n1 | 0.085 nM |  |  | 133 ng/mL | 0.36 h | 10.8% | 149 ng·h/mL | 601 mL/min/kg | 4.27 h | -0.55% | 2.69% |  |
| O=C(O)c1ccc2nc(CN3CCC(Oc4cccc(COc5ccc6cnn(CC(F)F)c6c5F)n4)CC3)n(C[C@@H]3CCO3)c2n1 | 0.085 nM |  |  | 38.3 ng/mL | 0.19 h | 2.2% | 31.4 ng·h/mL | 2210 mL/min/kg | 2.95 h | 5.1% | 14.2% |  |
| O=C(O)c1ccc2nc(CN3CCN(c4cccc(OCc5ccc(C6CC(F)(F)C6)cc5F)n4)CC3)n(C[C@@H]3CCO3)c2c1 | 0.081 nM | 66.6% |  |  |  |  |  |  |  |  |  | Activity [1]: 19.9% |

More lines, in order of falling EC50 [2], values ahead:

| EC50 [2] | Activity [3] | Activity ([1]; filed as agonist) | Cmax [4] | Tmax at 24 h [8] | Fa at 24 h [9] | AUC(0-inf) [10] | CL/F [11] | half-life [13] | SMILES | inhibition at 1 µM [6] | inhibition at 10 µM [12] | other results |
| --- | --- | --- | --- | --- | --- | --- | --- | --- | --- | --- | --- | --- |
| 0.059 nM | 88.9% | 57.9% | 22 ng/mL | 0.42 h | 3.63% | 67 ng·h/mL | 1230 mL/min/kg | 6.68 h | O=C(O)c1ccc2nc(CN3CC=C(c4cccc(OCc5ccc(C6CC(F)(F)C6)cc5F)n4)CC3)n(C[C@@H]3CCO3)c2c1 | 4.53% | 74% |  |
| 0.048 nM | 71.2% |  | 256 ng/mL | 2.67 h | 54.2% | 1380 ng·h/mL | 65.8 mL/min/kg | 3.32 h | O=C(O)c1ccc2nc(CN3CC=C(c4cccc(OCc5ccc(C6CC(F)(F)C6)cc5F)n4)CC3)n(C[C@@H]3CCO3)c2n1 | 0.6% | 37.6% | Activity [1]: 35.5%; EC50 [14]: > 20000 nM; EC50 [15]: 864 nM; EC50 [16]: 2020 nM; EC50 [17]: 22.7 nM; Activity [18]: Dose-dependent-effect; Activity [19]: Active; EC50 [20]: > 20000 nM; Activity [21]: Active; EC50 [22]: > 20000 nM |
| 0.047 nM |  |  | 24.1 ng/mL | 0.67 h | 28.5% | 182 ng·h/mL | 458 mL/min/kg | 10.5 h | O=C(O)c1ccc2nc(CN3CCC(Oc4cccc(Cc5ccc(Cl)c6c5OCC6)n4)CC3)n(C[C@@H]3CCO3)c2n1 | 0.7% | 5.1% |  |
| 0.031 nM |  |  | 33.6 ng/mL | 1.33 h | 2.86% | 91 ng·h/mL | 963 mL/min/kg | 2.19 h | O=C(O)c1ccc2nc(Cc3ccc(-c4cccc(OCc5ccc(C6CC(F)(F)C6)cc5F)n4)cc3F)n(C[C@@H]3CCO3)c2c1 | 0.58% | 4.76% |  |
| 0.016 nM | 82.2% | 45.4% |  |  |  |  |  |  | O=C(O)c1cc(F)c2nc(CN3CC=C(c4cccc(OCc5ccc(C6CC(F)(F)C6)cc5F)n4)CC3)n(C[C@@H]3CCO3)c2c1 |  | 58.7% |  |
| 0.012 nM | 92.3% | 69.4% | 31.5 ng/mL | 0.92 h | 2.43% | 84 ng·h/mL | 1040 mL/min/kg | 2.41 h | COc1cc(C(=O)O)cc2c1nc(CN1CC=C(c3cccc(OCc4ccc(C5CC(F)(F)C5)cc4F)n3)CC1)n2C[C@@H]1CCO1 |  | 68.3% |  |
